Source: patent US8207216B2, “Benzofuran-3-yl(indol-3-yl) maleimides as potent GSK3 inhibitors” (The Board of Trustees of the University of Illinois, priority 2006, dated 2012)

Experiments:
[1] = molecular target: T1, recombinant human His6-GSK-3β (Homo sapiens, UniProt P49841); assay: GSK-3β kinase assay, [γ32P] transfer to primed glycogen synthase peptide; assay type: biochemical; details: 10 μM ATP; 10 μM pGSM peptide; 30 minutes at 30° C.; read-out: IC50 (nM), GSK-3β inhibition;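 further: phosphate incorporation quantified by liquid scintillation counting of the filters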
T1 construct: His6; purchased EMD Biosciences

CDK-2/cyclinE = CDK-2/cyclinE (Homo sapiens, UniProt P24941); assay: CDK-2/CyclinE inhibition (Reaction Biology); assay type: biochemical; details: tested at Reaction Biology, Inc.
HupT3 = assay: Antiproliferation MTS assay, pancreatic cancer cells; assay type: cell-based; details: Homo sapiens
OVCA432 = assay: Antiproliferation assay, ovarian cancer cells; assay type: cell-based; details: ovarian cancer cell proliferation
Method: (§1) The pancreatic cancer cell lines BxPc-3, HupT3, MiaPaCa-2, Panc 04.03, and SU86.86 were obtained from ATCC (Rockville, Md.) and were grown in medium (DMEM or RPMI) containing 10% fetal calf serum and L-glutamine. Pancreatic cancer cells were plated out in duplicate into 6-wells of a 96-well microtiter plate at 2.5−4×10^3 cells per well. Four-hours post plating, individual wells were treated with diluent (DMSO) or varying concentrations of commercial compounds, AR-A014418 and SB216763, or the indicated GSK inhibitors of this invention from a concentration of 1 nM to 50 microM. […] The IC50s were calculated using XLfit (IDBS Limited, Guildford, UK).
(§2) Similar antiproliferation assays were performed using ovarian cancer cells. Compound 40 is of particular interest for inhibition of ovarian cancer cell proliferation.

SKOV3 = assay: Antiproliferation assay, ovarian cancer cells; assay type: cell-based; details: Homo sapiens, SK-OV-3; ovarian cancer cell proliferation
Method: as §1, §2

MIAPaCa-2 = assay: Antiproliferation MTS assay, pancreatic cancer cells; assay type: cell-based; details: Homo sapiens
BXPC-3 = assay: as above; assay type: cell-based; details: Homo sapiens
CDK2 = CDK2 (Homo sapiens, UniProt P24941); assay: Inhibition of various kinases (% inhibition); assay type: biochemical
Description: (§3) Additional examples of selectivity are illustrated in Table 4.

GSK3α = GSK3α (Homo sapiens, UniProt P49840); assay: Inhibition of various kinases (% inhibition); assay type: biochemical
Description: as §3

PDK1 = molecular target: T2, PDK1 (Homo sapiens, UniProt O15530); assay: Inhibition of various kinases (% inhibition); assay type: biochemical
T2 sequence (O15530 1-556): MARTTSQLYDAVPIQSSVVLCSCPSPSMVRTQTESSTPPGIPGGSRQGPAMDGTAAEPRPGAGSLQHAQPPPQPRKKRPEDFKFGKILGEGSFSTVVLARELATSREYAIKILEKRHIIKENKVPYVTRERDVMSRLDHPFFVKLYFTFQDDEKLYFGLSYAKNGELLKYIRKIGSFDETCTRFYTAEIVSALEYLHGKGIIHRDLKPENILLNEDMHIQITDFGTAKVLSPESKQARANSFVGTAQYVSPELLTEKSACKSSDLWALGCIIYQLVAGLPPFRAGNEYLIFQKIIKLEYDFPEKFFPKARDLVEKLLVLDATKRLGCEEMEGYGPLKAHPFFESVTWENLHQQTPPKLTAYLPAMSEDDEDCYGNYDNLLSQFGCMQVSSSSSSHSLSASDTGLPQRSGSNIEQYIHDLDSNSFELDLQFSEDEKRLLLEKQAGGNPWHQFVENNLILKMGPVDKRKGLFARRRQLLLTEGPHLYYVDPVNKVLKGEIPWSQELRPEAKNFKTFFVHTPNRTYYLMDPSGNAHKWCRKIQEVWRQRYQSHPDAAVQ
Description: as §3

PKCβ2 = PKCβ2 (Homo sapiens, UniProt P05771); assay: Inhibition of various kinases (% inhibition); assay type: biochemical
Description: as §3

C57BL/6J mice = assay: Amphetamine/chlordiazepoxide hyperactivity model of mania, open field locomotor activity; assay type: in vivo; details: 5-ING-135 50 mg/kg, 5 min pretreatment; amphetamine 4 mg/kg + chlordiazepoxide 2.5 mg/kg; 60 min
Method: Hyperactivity models are often used to mimic the mania associated with bipolar disorder.
Certain benzofuran-based ligands of this invention were studied in a novel mouse model of mania that has recently been validated with several clinically effective mood stabilizers. […] Mice were then injected with amphetamine (4 mg/kg) or amphetamine (4 mg/kg) and chlordiazepoxide (2.5 mg/kg) and locomotor activity was monitored for 60 min. The open field is a square box surrounded by an array of infra-red beams and their behavior is automatically recorded for 60 minutes in the open field test chamber (10.75″×10.75″×8″H with infra-red (I/R) array, model ENV 510, MED Associates). After this period the animals were returned to their home cages and then to the main colony.
Control treatments are as indicated. FIG. 1B illustrates similar locomotion activity data of treated mice measured in cm over 5 minute intervals for 60 minutes.

[2] = test system: pancreatic cancer cell lines; assay: Proliferation and survival of pancreatic cancer cells (overall statements); assay type: cell-based; details: based on data of Table 5
Method: as §1

[3] = HuP-T3, as reported in Gaisina et al. (2009) J. Med. Chem. 52(7), 1853-1863
[4] = MIA PaCa-2, as reported in Gaisina et al. (2009) J. Med. Chem. 52(7), 1853-1863
[5] = BXPC-3, as reported in Gaisina et al. (2009) J. Med. Chem. 52(7), 1853-1863

T1 sequence (P49841 whole entry): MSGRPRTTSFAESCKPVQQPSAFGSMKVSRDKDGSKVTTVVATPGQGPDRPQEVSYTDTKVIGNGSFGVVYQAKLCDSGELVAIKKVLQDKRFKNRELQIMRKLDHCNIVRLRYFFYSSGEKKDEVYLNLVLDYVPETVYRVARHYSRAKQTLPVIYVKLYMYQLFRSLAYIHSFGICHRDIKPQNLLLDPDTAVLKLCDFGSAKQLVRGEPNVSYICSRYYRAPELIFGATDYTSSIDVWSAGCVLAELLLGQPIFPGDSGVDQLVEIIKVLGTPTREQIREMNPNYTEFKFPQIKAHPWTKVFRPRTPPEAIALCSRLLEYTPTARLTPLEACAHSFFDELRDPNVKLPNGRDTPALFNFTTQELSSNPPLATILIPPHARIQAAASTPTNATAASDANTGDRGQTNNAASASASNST
PKCβ2, sequence (P05771 1-673 isoform P05771-2): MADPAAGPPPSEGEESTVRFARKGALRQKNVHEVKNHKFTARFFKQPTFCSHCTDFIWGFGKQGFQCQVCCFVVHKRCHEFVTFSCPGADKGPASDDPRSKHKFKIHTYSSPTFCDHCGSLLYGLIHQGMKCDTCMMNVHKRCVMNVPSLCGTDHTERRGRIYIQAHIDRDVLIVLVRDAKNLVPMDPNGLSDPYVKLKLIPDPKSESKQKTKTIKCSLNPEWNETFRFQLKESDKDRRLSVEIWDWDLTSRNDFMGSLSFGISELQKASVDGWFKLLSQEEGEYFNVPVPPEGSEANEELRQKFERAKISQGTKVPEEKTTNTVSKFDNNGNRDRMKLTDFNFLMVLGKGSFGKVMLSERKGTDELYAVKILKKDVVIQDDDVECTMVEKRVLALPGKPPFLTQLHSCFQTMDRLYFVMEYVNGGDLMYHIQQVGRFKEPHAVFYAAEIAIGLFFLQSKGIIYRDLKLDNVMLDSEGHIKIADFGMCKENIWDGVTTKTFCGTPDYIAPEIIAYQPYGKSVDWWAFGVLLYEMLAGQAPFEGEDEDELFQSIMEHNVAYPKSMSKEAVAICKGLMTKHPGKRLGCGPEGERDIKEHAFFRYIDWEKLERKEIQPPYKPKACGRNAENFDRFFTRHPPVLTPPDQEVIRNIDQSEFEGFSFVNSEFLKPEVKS
GSK3α, sequence (P49840 whole entry, species assumed): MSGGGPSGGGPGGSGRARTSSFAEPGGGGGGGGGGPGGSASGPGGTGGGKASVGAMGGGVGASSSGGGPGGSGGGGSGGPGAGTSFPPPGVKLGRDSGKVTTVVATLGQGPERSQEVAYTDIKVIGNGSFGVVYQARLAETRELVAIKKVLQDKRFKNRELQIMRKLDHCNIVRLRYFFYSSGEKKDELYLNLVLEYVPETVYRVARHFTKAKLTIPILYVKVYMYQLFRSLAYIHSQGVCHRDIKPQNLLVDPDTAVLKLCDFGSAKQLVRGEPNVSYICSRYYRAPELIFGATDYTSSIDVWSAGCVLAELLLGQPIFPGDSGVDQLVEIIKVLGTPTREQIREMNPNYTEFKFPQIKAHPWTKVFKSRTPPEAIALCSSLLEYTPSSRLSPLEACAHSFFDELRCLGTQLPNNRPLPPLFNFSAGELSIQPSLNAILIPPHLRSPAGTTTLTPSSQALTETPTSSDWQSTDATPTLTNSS

Row | IC50 [1] | IC50 (HupT3; [3]) | IC50 (HupT3; HuP-T3, 72 hrs, MTS) | IC50 (MIAPaCa-2; MIA PaCa-2, 72 hrs, MTS) | IC50 (BXPC-3; BXPC-3, 72 hrs, MTS) | IC50 (MIAPaCa-2; [4]) | Compound | Inhibition of pancreatic cancer cell proliferation compared with AR-A014418 and SB216768 [2] | also measured
1 | 131 ± 22 nM | – | > 50 µM | 14 µM | > 50 µM | – | N#Cc1ccc2c(c1)c(C1=C(c3coc4cc(F)c(F)cc34)C(=O)NC1=O)cn2CC1CC1 [Compound 35, 1-Cyclopropylmethyl-3-[4-(5,6-difluoro-benzofuran-3-yl)-2,5-dioxo-2,5-dihydro-1H-pyrrol-3-yl]-1H-indole-5-carbonitrile] | – | –
2 | 9.6 ± 4 nM | – | – | > 50 µM | – | – | C#Cc1ccc2c(c1)c(C1=C(c3coc4ccccc34)C(=O)NC1=O)cn2C [Compound 36, 3-Benzofuran-3-yl-4-(5-ethynyl-1-methyl-1H-indol-3-yl)-pyrrole-2,5-dione] | – | inhibition at 1 µM (CDK2; 1 μM): 68%; inhibition at 10 µM (CDK2; 10 μM): 100%; inhibition at 1 µM (GSK3α; 1 μM): 89%; inhibition at 10 µM (GSK3α; 10 μM): 100%; inhibition at 1 µM (PDK1; 1 μM): 14%; inhibition at 10 µM (PDK1; 10 μM): 27%; inhibition at 1 µM (PKCβ2; 1 μM): 24%; inhibition at 10 µM (PKCβ2; 10 μM): 74%; Inhibition of hyperactivity produced by amphetamine/chlordiazepoxide (locomotor activity) (C57BL/6J mice): exhibited inhibition of the hyperactivity
3 | 16.2 ± 3.9 nM | > 50 µM | > 50 µM | 34 µM | > 50 µM | 34 ± 2.2 µM | Cn1cc(C2=C(c3coc4ccc(F)cc34)C(=O)NC2=O)c2cc(C#CC3CC3)ccc21 [Compound 38, 3-(5-Cyclopropylethynyl-1-methyl-1H-indol-3-yl)-4-(5-fluoro-benzofuran-3-yl)-pyrrole-2,5-dione] | more effective inhibition of pancreatic cancer cell proliferation than these reference compounds | IC50 (BXPC-3; [5]): > 50 µM
4 | 14 ± 3 nM | – | – | – | – | – | Cn1cc(C2=C(c3coc4ccc(F)cc34)C(=O)NC2=O)c2ccc(O)cc21 [Compound 46, 3-(5-Fluoro-benzofuran-3-yl)-4-(6-hydroxy-1-methyl-1H-indol-3-yl)-pyrrole-2,5-dione] | – | Inhibition of hyperactivity produced by amphetamine/chlordiazepoxide (locomotor activity) (C57BL/6J mice): exhibited inhibition of the hyperactivity
5 | 831 ± 77 nM | 6 ± 0.5 µM | 6 µM | 8 µM | 6 µM | 8 ± 1.2 µM | COc1cccc2c(C3=C(c4cn(C)c5cc(C(F)(F)F)ccc45)C(=O)NC3=O)coc12 [Compound 49, 3-(7-Methoxy-benzofuran-3-yl)-4-(1-methyl-6-trifluoromethyl-1H-indol-3-yl)-pyrrole-2,5-dione] | more effective inhibition of pancreatic cancer cell proliferation than these reference compounds | IC50 (BXPC-3; [5]): 6 ± 0.8 µM
6 | 314 ± 19 nM | 6 ± 0.7 µM | 6 µM | 17 µM | 7 µM | 17 ± 3.2 µM | Cn1cc(C2=C(c3coc4cc(F)c(F)cc34)C(=O)NC2=O)c2ccc3ccccc3c21 [Compound 55, 3-(5,6-Difluoro-benzofuran-3-yl)-4-(1-methyl-1H-benzo[g]indol-3-yl)-pyrrole-2,5-dione] | more effective inhibition of pancreatic cancer cell proliferation than these reference compounds | –

Row | Compound | IC50 [1] | IC50 (HupT3; [3]) | IC50 (HupT3; HuP-T3, 72 hrs, MTS) | IC50 (MIAPaCa-2; MIA PaCa-2, 72 hrs, MTS) | IC50 (BXPC-3; BXPC-3, 72 hrs, MTS) | IC50 (MIAPaCa-2; [4]) | Inhibition of pancreatic cancer cell proliferation compared with AR-A014418 and SB216768 [2] | also measured
7 | Cn1cc(C2=C(c3coc4ccccc34)C(=O)NC2=O)c2cc(I)ccc21 [Compound 28, 3-Benzofuran-3-yl-4-(5-iodo-1-methyl-1H-indol-3-yl)-pyrrole-2,5-dione] | 15.5 ± 3.5 nM | > 50 µM | > 50 µM | – | – | – | – | IC50 (CDK-2/cyclinE): 1070 nM; IC50 (OVCA432): 20 µM; IC50 (SKOV3): 26.7 µM
